Results as given in patent US7772228B2, “Method for treatment of bacterial infections with once or twice-weekly administered rifalazil” (priority 1998, dated 2010).
In brackets after ≈: the same amount, converted by molar mass. Where two headings read alike, the source gives them in different places.

What was measured:
[1] = system: M. tuberculosis in human macrophages; assay: MIC and MBC against intracellular bacteria in human macrophages; format: cell-based, Mycobacterium tuberculosis
[2] = system: extracellular M. tuberculosis; assay: MIC and MBC against extracellular bacteria; format: cell-based, Mycobacterium tuberculosis
[3] = system: M. intracellulare; assay: Mice infected with M. intracellulare, CFUs in organs; format: in vivo; conditions: after four and eight weeks of treatment
[4] = system: M. avium; assay: Rabbit model of M. avium infection; format: in vivo; conditions: compared to controls
[5] = system: Chlamydia pneumoniae strain AR-39; assay: Mouse model infected with Chlamydia pneumoniae; format: in vivo; conditions: intraperitoneal 1 mg/kg QID for three days; five days after cessation
Method: Sensitivity testing was conducted in cell cultures against Chlamydia pneumoniae strain TW-l 83 using rifalazil, clanthromycin, or azithromycin. […] The in vivo testing of rifalazil used a mouse model infected with Chlamydia pneumoniae strain AR-39. […] All control animals remained infected.

[6] = Multiple-dose oral toxicology studies in rats; format: in vivo
Method: (§1) In chronic studies with dogs and rats, the no-observed-adverse-effect-level was 1000 mg/kg. […] Significant partitioning of drug-related radioactivity to the formed elements of the blood was observed. […] The urine contained a small amount (5.5%) of radioactivity.
(§2) Single-dose and multiple-dose oral toxicology studies were conducted in mice, rats, and dogs. In addition, to maximize systemic exposure, single-dose intravenous (IV) and intraperitoneal (IP) studies were conducted in rats and mice. Four-week and 13-week oral studies in dogs and rats and 26-week oral studies in rats included standard clinical measurements and physical and pathological evaluations.

[7] = Multiple-dose oral toxicology studies in dogs; format: in vivo
Method: as §1, §2

[8] = human, in vivo
Method: The third trial (003) was a randomized, rising, double-blind, multiple-dose, placebo-controlled study where subjects were observed during the 14-consecutive days of drug administration in dosages 0, 5 and 25 mg/day and for an additional 14 days without medication. All subjects received the dose within 30 minutes after eating a standardized breakfast. Subjects were divided into two groups. In Group 1, eight subjects were randomized to a daily 25 mg dose of rifalazil and four subjects were randomized to placebo. Numerous adverse reactions began to appear with the 25 mg dose several days after dosing and it became apparent that 25 mg daily dose was not safe. Consequently, after review of the safety data, the study protocol was amended to proceed with a lower dose of 5 mg in group 2. Group 2 consisted of eight subjects randomized to a daily 5 mg dose of rifalazil and four subjects randomized to placebo.
In the clinical trials 001 and 002 all patients were submitted to laboratory testing where the hematology, serum chemistry and urinanalysis were examined prior to dosing, during dosing and at least 14 days following the cessation of drug administration.
Laboratory testing regimen for 003 and 004 trials was the same as for 001 and 002 trials.
The onset and magnitude of decrease in hematologic parameters appeared to be related to this dose. In order to better visualize the drop and subsequent recovery in these parameters, the data were graphed to synchronize subjects to their last dose.

[9] = clinical; conditions: human, in vivo
Source text: Attempts were made to analyze the multiple-dose pharmacokinetics using a linear 3-compartment model, and a 3-compartment model incorporating enzyme induction. However, neither multi-compartmental model accurately characterized the pharmacokinetic parameters in all subjects. Daily dosing and related early terminations due to adverse reactions, differences in bioavailability from a food effect, and nonconnective dose administration further complicated these analyses. Therefore, only noncompartmental pharmacokinetic parameters were derived for clinical trials 003 and 004. For the 004 clinical trial, the pharmacokinetic analysis of this multiple-dose study was limited to a comparison of the noncompartmental parameters obtained from the first dose (Day 1) data versus the fourth (last) dose (Day 22). Because of extensive sampling after the fourth dose, this study yielded the most complete data about terminal elimination of rifalazil given in a multiple-dose regimen.

[10] = system: M. avium; conditions: 18 strains, agar dilution; cited from earlier work
[11] = system: extracellular M. tuberculosis; conditions: cited from earlier work
[12] = system: M. tuberculosis strain Erdman; conditions: cited from earlier work
[13] = system: M. tuberculosis; conditions: eight weeks treatment; cited from earlier work
[14] = system: Helicobacter pylori; parameters: unit of the concentration uncertain; conditions: time-kill, broth medium, 0.04 (unit uncertain); cited from earlier work

## CO[C@H]1/C=C/O[C@@]2(C)Oc3c(C)c(O)c4c(=O)c(c5oc6cc(N7CCN(CC(C)C)CC7)cc(O)c6nc-5c4c3C2=O)NC(=O)/C(C)=C\C=C\[C@H](C)[C@H](O)[C@@H](C)[C@@H](O)[C@@H](C)[C@H](OC(C)=O)[C@@H]1C [Rifalazil, 3′-hydroxy-5′-(4-isobutyl-1-piperazinyl)benzoxasinorifamycin]
[1]
  MIC and MBC fold lower than rifampin: at least 10 fold
[2]; extracellular bacteria
  MIC and MBC fold lower than rifampin: at least 10 fold
[2]; typical
  MBCs relative to the MICs: 2-4 fold
[3]
  number of CFUs in organs: significantly reduced the number of colony forming units (CFUs) in organs
[4]
  bacterial load on organs: reduced the bacterial load on organs compared to controls
[5]
  Chlamydia pneumoniae in the lungs: not detectable
[6]; 26-week study
  doses with dose-related lymphocytic depletion in the spleens: > 30 mg/kg/day
[6]; chronic studies, rats
  no-observed-adverse-effect-level: 1000 mg/kg
[6]; multiple-dose oral, rats
  doses at which hematological changes were noted: > 30 mg/kg
[7]; 1,000 mg/kg, four weeks daily dosing
  liver weight: slight increase in liver weight
[7]; 13-week study, daily oral
  no observable adverse effect level: 300 mg/kg
[7]; chronic studies, dogs
  no-observed-adverse-effect-level: 1000 mg/kg
[7]; multiple-dose oral, dogs
  doses at which hematological changes were noted: > 30 mg/kg
[8]
  WBC counts, level of continuous drop: around 2.0 K/CU MM
  nadir of mean WBC after the last dose: 1 to 2 days
  time for hematologic parameters to return to normal after the last dose: ≤ 14 days
[9]; 25 mg
  increase of AUC(0-24) on Day 22 relative to Day 1: approximately 17%
[9]; 25 mg, apparent terminal half-life, range
  half-life: 29.5 to 107 h
[9]; 50 mg
  increase of AUC(0-24) on Day 22 relative to Day 1: ~27%
[9]; 50 mg, apparent terminal half-life, range
  half-life: 65.9 to 148 h
[9]; Half-life distribution t½ (mean)
  half-life: 10.5 h
[9]; Half-life elimination t½ (mean)
  half-life: ~61 h
[9]; Tmax (mean)
  Tmax: 5.7 h
[10]
  MIC90: 1560 ng/mL (≈ 1660 nM)
[11]; strain Atencio
  MBC: 8 ng/mL (≈ 8.5 nM)
  MIC: 1 ng/mL (≈ 1.06 nM)
[11]; strain Erdman
  MBC: 4 ng/mL (≈ 4.25 nM)
  MIC: 2 ng/mL (≈ 2.13 nM)
[11]; strain H37Rv
  MBC: 31 ng/mL (≈ 32.9 nM)
  MIC: 8 ng/mL (≈ 8.5 nM)
[12]; 20 mg/kg, five times per week for four weeks
  reduction of bacterial load in lungs and spleens, comparison of drugs: reduced bacterial loads to a significantly greater extent than the other two drugs
[12]; four weeks treatment
  activity against organisms in lungs, comparison of treatments: most active single-agent
  cell counts in lungs compared to early controls: significantly reduced cell counts in lungs
  cell counts in lungs compared to late controls: reduced cell counts in lungs
[12]; rifalazil 20 mg/kg, PZA 150 mg/kg, four weeks
  CFUs in the spleen: most active single-agent
[13]
  gross lung lesions, bacterial loads, survival time versus rifampin: outperformed rifampin in treating the disease
[14]
  CFUs at 24 hours lower than the control at zero hours: more than 4.5 log
